Each structure is given as a SMILES string. Read-outs that look alike come from different tables or passages of the source. A value given as a limit tells only on which side of the number the result lay.

A word on the IC50: it is the concentration that inhibits the measured activity by half.

Data set [1] relates to passive cutaneous anaphylaxis (PCA). The experiment in a line: Anti-passive cutaneous anaphylaxis (PCA) activity in rats (Test Example 2). The class given is in vivo, Wistar strain rats. Conditions: Rattus norvegicus, N 10; for inhibition in vivo at 10 mg/kg: 10 mg/kg PO; for inhibition in vivo at 50 mg/kg: 50 mg/kg PO; for inhibition in vivo at 100 mg/kg: 100 mg/kg PO. The method, then: (§1) Wistar strain rats were sensitized with ovalbumin using aluminium hydroxide gel and Bordetella Pertussis vaccine as adjuvants. Dilutions of antiserum (16-fold and 32-fold) obtained by collecting blood samples 14 days later were administered subcutaneously in the dorsal skin of the rats of the same strain at the rate of 0.1 ml per spot, and the rats were grown for 48 hours. One hour after peroral administration of the sample solution, a mixture of antigen ovalbumin and Evans-blue dye was administered to the tail venous of the animal according to the ordinary procedure. Thirty minutes later, the animals were sacrificed by exsanguination, and the areas of blue spots (long diameter×short diameter) eliciting on the portion of the antiserum injection at the dorsal skin were measured to obtain the rate of inhibition based on the average value shown by the control animals.

Data set [2] concerns the target T1, hyaluronidase (Bos taurus, UniProt Q2YDK3).
T1 sequence (Q2YDK3 36-553): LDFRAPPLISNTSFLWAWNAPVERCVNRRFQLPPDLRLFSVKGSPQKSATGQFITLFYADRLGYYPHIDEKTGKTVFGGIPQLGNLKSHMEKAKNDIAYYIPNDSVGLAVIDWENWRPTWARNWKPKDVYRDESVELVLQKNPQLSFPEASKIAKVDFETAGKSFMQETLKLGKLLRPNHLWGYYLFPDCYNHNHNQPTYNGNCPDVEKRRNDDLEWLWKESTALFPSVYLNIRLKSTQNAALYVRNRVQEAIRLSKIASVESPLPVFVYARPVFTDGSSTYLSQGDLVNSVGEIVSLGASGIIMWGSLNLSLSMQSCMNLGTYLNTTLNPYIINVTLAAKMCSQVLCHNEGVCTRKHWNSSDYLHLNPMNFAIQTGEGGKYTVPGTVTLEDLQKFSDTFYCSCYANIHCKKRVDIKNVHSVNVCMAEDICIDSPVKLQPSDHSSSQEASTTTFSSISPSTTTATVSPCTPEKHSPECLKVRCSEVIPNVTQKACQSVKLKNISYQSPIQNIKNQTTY
The experiment in a line: Anti-hyaluronidase activity (modified Morgan-Elson method). The class given is biochemical. The conditions noted are these: hyaluronidase 340NF unit/ml, activating agent Compound 48/80 or CaCl2.
Experimental: A buffer soluticn of hyaluronidase (0.1 ml) was taken in a test tube and 0.2 ml each of the buffer solution of various compounds in various concentrations was added, and the mixture was preincubated at 37° C. for 20 minutes. Then, an activating agent (Compound 48/80 or CaCl2) (0.2 ml) was added to make the total amount 0.5 ml, which was incubated at 37° C. for 20 minutes. Then, potassium hyaluronate buffer solution (0.5 ml) was added, and the mixture was incubated at 37° C. for 40 minutes. After cooling, the mixture was treated with aqueous solution of 0.4N NaOH (0.2 ml) and neutralized to stop the reaction. The resulting product was subjecred to measurement of OD585 by the modified Morgan-Elson Method. […] (The final ccncentration of hyaluronidase was 340NF unit/ml.) [formula]

The nature of data set [3]: Acute toxicity LD50 in mice (Test Example 8). The conditions noted are these: mouse, in vivo, one week, Probit method. The method, then: ddy-Strain mice (male) and Wistar strain rats were used to obtain LD50 values.
According to the ordinary procedure, suspension or solution of test sample was administered to the animals. From the number of the died animals until one week after the administration, LD50 values were obtained by Probit method.

In data set [4] the test system is passive cutaneous anaphylaxis (PCA). The experiment in a line: Anti-passive cutaneous anaphylaxis activity (PCA) in rats (Test Example 9). The class given is in vivo. The conditions noted are these: Rattus norvegicus, po, 10 animals. The method, then:
as §1
This test was conducted in a manner similar to that in Test Example 2, except that the dilutions of antiserum were 12- and 24-folds.

The test system of data set [5] is experimental ulcer model (Shay). The experiment in a line: Anti-ulcer activity in experimental ulcer model (Shay). The format is in vivo, Wistar strain male rats. The method, then:
Using 5 eight-week old Wistar strain male rats of 1 group, the rats were previously fasted for […]. The compound of an amount proportionate to the body weight based on the body weight after fasting was administered intraduodenally or intraperitoneally.
Each test compound was evenly suspended or dissolved in an aqueous solution of 0.5% CMC ccntaining 0.1% Tween 80, and administered at the rate of 0.5 ml per 100 g of body weight of the animal. To the controls, only the solvent was administered.
Test was carried out in accordance with Shay's method. After 48 hours' fasting, 5 animals per group were subjected to laparotomy under ether anesthesia, the tract between pylorus of stomach and duodenum was ligated, and the solution of the compound was administered intraduodenally (id) or intraperitoneally (ip), followed by suturing the laparotomy part. Eight hours after administration of the compound liquid, each animal was sacrificed by ether anesthesia and stomach was removed. Then, evaluation on the ulcer condition on the inner surface of stomach, and determination of the amount of gastric juice, of acidity by alkali titration, and of pepsin titer based on substrate of hemoglovin were made on the stored gastric juice. With regard to the acidity, gastric juice amount, and pepsin titer, the results were shown in inhibition rate (%) based on the average value of the control groups.

Data set [6] in a line: Acute toxicity LD50 in ICR mice (Test Example 11). The conditions noted are these: mouse, in vivo; intravenous; one week; Provit method; read-out: LD50 Value (mg/kg of body weight) Intravenous administration. The method, then:
As test animals, ICR-strain mice (male) were used. According to the conventional procedure, suspension or solution of test sample was administered to the animals. From the number of the died animals until one week after the administration, LD50 values were obtained by Provit method.

[7] abbreviates: read-out: Average Inhibition Rate (%) Antiserum Dilution: × 16.
[8] abbreviates: read-out: Average Inhibition Rate (%) Antiserum Dilution: × 32.
Setting [9] is: iv, read-out: LD50 value (mg/kg body weight) Mouse i.v.
Setting [10] is: po, read-out: LD50 value (mg/kg body weight) Mouse p.o.
[11] abbreviates: read-out: Inhibition, Anti-serum Dilution: × 12.
[12] abbreviates: read-out: Inhibition, Anti-serum Dilution: × 24.

As for `O=C(Nc1ccccc1C(=O)O)C(=Cc1ccc(Cl)cc1)C(=O)Nc1ccccc1C(=O)O` [Compound 30], in data set [1] (setting [7]), the inhibition in vivo at 10 mg/kg turned out to be 18.8%, the inhibition in vivo at 50 mg/kg came out at 23.4% and the inhibition in vivo at 100 mg/kg worked out at 36.5%. In data set [1] (setting [8]), the inhibition in vivo at 10 mg/kg came to 23.2%, the inhibition in vivo at 50 mg/kg stood at 33.3% and the inhibition in vivo at 100 mg/kg was 42.5%. For the same compound, in data set [2] (read-out: IC50), the IC50 was 0.01 mM. Further, in data set [3] (setting [9]), the LD50 at 168 h turned out to be 258 mg/kg. The LD50 at 168 h in data set [3] (setting [10]) is 8380 mg/kg.

`COc1cc(C=C(C(=O)Nc2ccccc2C(=O)O)C(=O)Nc2ccccc2C(=O)O)ccc1O` [Compound 24]: the IC50 in data set [2] (read-out: IC50) came to 0.02 mM. For the same compound, the LD50 at 168 h in data set [3] (setting [9]) is 275 mg/kg; in data set [3] (setting [10]), over 10000 mg/kg.

Consider `CCOC(=O)OC(C)OC(=O)c1ccccc1NC(=O)C(=Cc1ccccc1)C(=O)Nc1ccccc1C(=O)OC(C)OC(=O)OCC` (stereo not shown) [Compound 58, di[1-(ethoxycarbonyloxy)ethyl]-2,2'-[(1,3-dioxo-2-phenylmethylene-1,3-propanediyl)diimino]bisbenzoate], for which the inhibition in vivo at 10 mg/kg in data set [4] (setting [11]) is 40.2%; in data set [4] (setting [12]) it was 43.1%. The inhibition in vivo at 50 mg/kg in data set [4] (setting [11]) is 50.8%; in data set [4] (setting [12]), 57.6%.

For `Cc1oc(=O)oc1COC(=O)c1ccccc1NC(=O)C(=Cc1ccccc1)C(=O)Nc1ccccc1C(=O)OCc1oc(=O)oc1C` [Compound 59, di[(5-methyl-2-oxo-1,3-dioxole-4-yl)methyl]-2,2'-[(1,3-dioxo-2-phenylmethylene-1,3-propanediyl)diimino]bisbenzoate], the inhibition in vivo at 10 mg/kg is 22% in data set [4] (setting [11]) and 25.1% in data set [4] (setting [12]). The inhibition in vivo at 50 mg/kg came to 65.7% in data set [4] (setting [11]) and 62% in data set [4] (setting [12]).

As for `Cc1ccc(C=C(C(=O)Nc2ccccc2C(=O)O)C(=O)Nc2ccccc2C(=O)O)cc1` [Compound 26, 2,2'-[[1,3-dioxo-2-(4-methyl)phenylmethylene-1,3-propanediyl]diimino]bisbenzoic acid], in data set [1] (setting [7]), the inhibition in vivo at 50 mg/kg stood at 8.3% and the inhibition in vivo at 100 mg/kg amounted to 16.4%. In data set [1] (setting [8]), the inhibition in vivo at 50 mg/kg is 10% and the inhibition in vivo at 100 mg/kg worked out at 19.1%. Moreover, the IC50 in data set [2] (read-out: IC50) is 0.02 mM.

With `CC(=O)Nc1ccc(C=C(C(=O)Nc2ccccc2C(=O)O)C(=O)Nc2ccccc2C(=O)O)cc1` [Compound 29], in data set [1] (setting [7]), the inhibition in vivo at 100 mg/kg came to 3.4%. In data set [1] (setting [8]), the inhibition in vivo at 100 mg/kg stood at 3.9%. Also, in data set [5] (id 100 mg/kg), the “Inhibition % Gastric Acidity” value was found to be 0%, the “Inhibition % secretion amount of gastric juice” value (“Inhibition % secretion amount” below) turned out to be 0% and the “Inhibition % total pepsin titer” value turned out to be 0%. For the same compound, in data set [5] (id 200 mg/kg), the “Inhibition % Gastric Acidity” value amounted to 0.7%, the “Inhibition % secretion amount” value amounted to 0.5% and the “Inhibition % total pepsin titer” value is reported as 0%. In data set [2] (read-out: IC50), the IC50 was 0.02 mM.

In the case of `CC(C)(C)C(=O)OCOC(=O)c1ccccc1NC(=O)C(=Cc1ccccc1)C(=O)Nc1ccccc1C(=O)OCOC(=O)C(C)(C)C` [Compound 57, di(pivaloyloxymethyl)-2,2'-[(1,3-dioxo-2-phenylmethylene-1,3-propanediyl)diimino]bisbenzoate], in data set [4] (setting [11]), the inhibition in vivo at 10 mg/kg was 37% and the inhibition in vivo at 50 mg/kg came to 45%. For the same compound, in data set [4] (setting [12]), the inhibition in vivo at 10 mg/kg was found to be 30.9% and the inhibition in vivo at 50 mg/kg came to 50.1%.

`COc1ccc(C=C(C(=O)Nc2cc([N+](=O)[O-])ccc2C(=O)O)C(=O)Nc2cc([N+](=O)[O-])ccc2C(=O)O)cc1OC` [Compound 22]: the inhibition in vivo at 50 mg/kg in data set [1] (setting [7]) turned out to be 19.7%; in data set [1] (setting [8]), 22.6%. The inhibition in vivo at 100 mg/kg in data set [1] (setting [7]) was determined as 34.6%; in data set [1] (setting [8]), 40%. Moreover, the “Inhibition % Gastric Acidity” value in data set [5] (id 100 mg/kg) is reported as 9.1%; in data set [5] (id 200 mg/kg), 13.2%; in data set [5] (id 300 mg/kg), 15.7%; in data set [5] (ip 50 mg/kg), 38.2%. Further, the “Inhibition % secretion amount” value in data set [5] (id 100 mg/kg) stood at 11.1%; in data set [5] (id 200 mg/kg), 11.6%; in data set [5] (id 300 mg/kg), 24.9%; in data set [5] (ip 50 mg/kg), 29.0%. The “Inhibition % total pepsin titer” value was found to be 7.2% in data set [5] (id 100 mg/kg), 10.1% in data set [5] (id 200 mg/kg), 8.3% in data set [5] (id 300 mg/kg) and 37.2% in data set [5] (ip 50 mg/kg). In data set [2] (IC50 (mM)), this compound had an IC50 of 0.008 mM.

Consider `O=C(CC(=O)Nc1cc([N+](=O)[O-])ccc1C(=O)O)Nc1cc([N+](=O)[O-])ccc1C(=O)O` [Compound 06, 4,4'-dinitro-2,2'-[(1,3-dioxo-1,3-propanediyl)diimino]bisbenzoic acid], for which, in data set [1] (setting [7]), the inhibition in vivo at 10 mg/kg was determined as 8.5%, the inhibition in vivo at 50 mg/kg came out at 14.9% and the inhibition in vivo at 100 mg/kg came to 18.6%. For the same compound, in data set [1] (setting [8]), the inhibition in vivo at 10 mg/kg amounted to 11.2%, the inhibition in vivo at 50 mg/kg was determined as 13.3% and the inhibition in vivo at 100 mg/kg was 18.8%. For the same compound, in data set [2] (IC50 (mM)), the IC50 was 0.013 mM.

On to `CC(C)(C)OC(=O)c1ccccc1NC(=O)C(=Cc1ccccc1)C(=O)Nc1ccccc1C(=O)OC(C)(C)C` [Compound 54, di-tertiary butyl 2,2'-[(1,3-dioxo-2-phenylmethylene-1,3-propanediyl)diimino]bisbenzoate], for which the inhibition in vivo at 10 mg/kg in data set [4] (setting [11]) amounted to 33%; in data set [4] (setting [12]), 34.3%. The inhibition in vivo at 50 mg/kg in data set [4] (setting [11]) was 38.8%; in data set [4] (setting [12]), 42.6%. Moreover, in data set [6], the LD50 at 168 h was 312 mg/kg.

Consider `O=C(Nc1ccccc1C(=O)OC1OC(=O)c2ccccc21)C(=Cc1ccccc1)C(=O)Nc1ccccc1C(=O)OC1OC(=O)c2ccccc21` (stereo not shown) [Compound 56], for which, in data set [4] (setting [11]), the inhibition in vivo at 10 mg/kg turned out to be 44.7% and the inhibition in vivo at 50 mg/kg came out at 49.7%. In data set [4] (setting [12]), the inhibition in vivo at 10 mg/kg was 43.6% and the inhibition in vivo at 50 mg/kg came to 58.4%.

Take `CC(C)OC(=O)c1ccccc1NC(=O)C(=Cc1ccccc1)C(=O)Nc1ccccc1C(=O)OC(C)C` [Compound 53, diisopropyl 2,2'-[(1,3-dioxo-2-phenylmethylene-1,3-propanediyl)diimino]bisbenzoate]: the inhibition in vivo at 50 mg/kg in data set [4] (setting [11]) is 26.1%; in data set [4] (setting [12]), 23.9%.

The record behind these values is patent publication US4822791A, “Pharmaceutical compositions of-2,2-1,1-[bis-2,2'-(3,1-benzoxazin-4-one)9 ethylenes” (priority 1984, dated 1989).
